In US7393871B2, “Anionic and neutral complexes of ruthenium (II) with nitrogen oxide” (Siega S.R.L., priority 2003, dated 2008):
Where two headings read alike, the source gives them in different places.

What was measured:
[1] = tested on: TS/A, a murine adenocarcinoma cell line; test: Cytotoxicity, cell viability (MTU test) on TS/A cells; format: cell-based; conditions: medium with 5% FCS
Method: (§1) The cytotoxicity of the ruthenium complexes prepared in Example 4 and 7 was tested on two significative tumor cell lines: MCF-7, a human hormone dependent mammary carcinoma cell line and TS/A, a murine adenocarcinoma cell line. At day 0 4000 TS/A cells and 5000 MCF-7 cells were sown in 96-welled dishes In 200 μl of culture medium. The culture medium used was RPMI medium supplemented with 10% FCS for the TS/A line and a mixture 1:1 of DMEM and F12 medium supplemented with 10% FCS for MCF-7. At day 1 the culture medium was removed and substituted with an identical medium containing 5% FCS only (control) or 5% FCS and the test compound (complex of example 4 or example 7) at the following concentrations: 0.1 μM, 1 μM, 3 μM, 10 μM, 30 μM, 100 μM, 300 μM, 600 μM and 1000 μM.
(§2) After 24, 48 and 72 hours cell viability was evaluated with a MTU test.

[2] = tested on: MCF-7, a human hormone dependent mammary carcinoma cell line; test: Cytotoxicity, cell viability (MTU test) on MCF-7 cells; format: cell-based; conditions: medium with 5% FCS
Method: as §1, §2

[3] = 24 hours exposure, read-out: IC50 TSA 24 hours
[4] = 48 hours exposure, read-out: IC50 TSA 48 hours
[5] = 72 hours exposure, read-out: IC50 TSA 72 hours
[6] = 24 hours exposure, read-out: IC50 MCF-7 24 hours
[7] = 48 hours exposure, read-out: IC50 MCF-7 48 hours
[8] = 72 hours exposure, read-out: IC50 MCF-7 72 hours

Row | Substance | IC50 [1, 3] [µM] | IC50 [1, 4] [µM] | IC50 [1, 5] [µM] | IC50 [2, 6] [µM] | IC50 [2, 7] [µM] | IC50 [2, 8] [µM]
1 | [Im2H][trans-Ru^IICl4(Im)NO] [Complex of Ex. 7] | 141 | 39 | 33 | 532 | 143 | 18
2 | [ImH][trans-Ru^IICl4(Me2SO—O)NO] [Complex of Ex. 4] | 155 | 20 | 17 | 764 | 118 | 26
